Assay results: ChEMBL document CHEMBL5579823, “Discovery of 7-alkoxybenzofurans as PDE4 inhibitors with hepatoprotective activity in D-GalN/LPS-induced hepatic sepsis” (Eur J Med Chem, 2024)
pIC50: −log10 of the molar value. Each block holds one molecule with its values, some of them ahead of it. The source made the active and inactive calls. The calls are words filed in the database; no cut-off is given here.

How the values were obtained:
[1] = Oral bioavailability in mouse at 5 mg/kg by LC-MS/MS analysis; assay type: ADME, organism-based; settings: in vivo
[2] = target: T1, 3',5'-cyclic-AMP phosphodiesterase 4B (Homo sapiens, UniProt Q07343); assay: Inhibition of recombinant human N-terminal GST-tagged PDE4B1 (1 to 736 residues) expressed in Sf9 insect cells using FAM-cyclic-3',5'-AMP as substrate measured after 1 hr by fluorescence polarization assay
T1 sequence (Q07343 whole entry, the tested form may be a part): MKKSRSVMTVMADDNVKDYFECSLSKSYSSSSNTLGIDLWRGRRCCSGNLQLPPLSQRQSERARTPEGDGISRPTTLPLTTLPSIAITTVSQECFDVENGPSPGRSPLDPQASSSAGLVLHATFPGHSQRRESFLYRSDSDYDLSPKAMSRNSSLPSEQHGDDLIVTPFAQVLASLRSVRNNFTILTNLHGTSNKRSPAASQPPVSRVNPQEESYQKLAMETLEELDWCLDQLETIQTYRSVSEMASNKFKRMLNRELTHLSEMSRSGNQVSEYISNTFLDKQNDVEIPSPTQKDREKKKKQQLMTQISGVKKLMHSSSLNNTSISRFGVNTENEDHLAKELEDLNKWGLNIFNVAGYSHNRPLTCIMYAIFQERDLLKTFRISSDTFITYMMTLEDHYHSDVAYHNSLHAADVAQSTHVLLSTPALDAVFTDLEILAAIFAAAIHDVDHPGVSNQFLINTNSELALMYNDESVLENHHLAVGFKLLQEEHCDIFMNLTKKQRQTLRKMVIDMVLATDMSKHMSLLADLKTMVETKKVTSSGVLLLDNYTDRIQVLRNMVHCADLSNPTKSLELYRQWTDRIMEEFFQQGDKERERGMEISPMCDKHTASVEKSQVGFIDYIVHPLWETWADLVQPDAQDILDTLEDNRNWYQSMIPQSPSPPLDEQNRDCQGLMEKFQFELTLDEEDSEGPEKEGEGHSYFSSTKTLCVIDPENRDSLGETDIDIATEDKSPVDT

[3] = target: T2, 3',5'-cyclic-AMP phosphodiesterase 4D (Homo sapiens, UniProt Q08499); assay: Inhibition of human N-terminal GST-tagged PDE4D7 (2 to 748 residues) expressed in baculovirus infected Sf9 insect cells using FAM-cyclic-3',5'-AMP as substrate measured after 1 hr by fluorescence polarization assay
T2 sequence (Q08499 whole entry, the tested form may be a part): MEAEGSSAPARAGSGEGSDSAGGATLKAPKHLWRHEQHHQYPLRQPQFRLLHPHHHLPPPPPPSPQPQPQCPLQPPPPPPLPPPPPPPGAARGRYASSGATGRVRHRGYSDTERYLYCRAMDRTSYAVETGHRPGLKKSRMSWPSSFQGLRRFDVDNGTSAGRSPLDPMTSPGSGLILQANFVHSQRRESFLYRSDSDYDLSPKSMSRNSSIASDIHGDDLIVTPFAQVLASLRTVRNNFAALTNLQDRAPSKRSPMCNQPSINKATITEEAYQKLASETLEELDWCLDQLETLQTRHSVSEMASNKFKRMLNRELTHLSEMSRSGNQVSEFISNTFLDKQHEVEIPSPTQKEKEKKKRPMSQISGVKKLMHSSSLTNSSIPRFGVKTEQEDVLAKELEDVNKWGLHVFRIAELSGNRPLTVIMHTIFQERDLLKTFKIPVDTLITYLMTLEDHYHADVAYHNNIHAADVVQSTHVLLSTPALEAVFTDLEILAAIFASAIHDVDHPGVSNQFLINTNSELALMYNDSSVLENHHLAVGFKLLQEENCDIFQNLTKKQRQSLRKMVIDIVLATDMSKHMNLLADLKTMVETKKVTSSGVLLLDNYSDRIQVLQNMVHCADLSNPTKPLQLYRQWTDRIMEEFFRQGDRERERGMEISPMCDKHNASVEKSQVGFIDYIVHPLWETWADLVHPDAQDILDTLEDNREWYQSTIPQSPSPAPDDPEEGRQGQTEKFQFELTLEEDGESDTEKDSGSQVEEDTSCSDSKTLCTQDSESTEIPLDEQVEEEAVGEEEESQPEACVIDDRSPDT

[4] = target: cGMP-inhibited 3',5'-cyclic phosphodiesterase 3B (Homo sapiens) (UniProt Q13370); assay: Inhibition of recombinant human N-terminal GST-tagged PDE3B (592 to 1112 residues) expressed in Sf9 insect cells at 20 uM using FAM-cyclic-3',5'-AMP as substrate measured after 1 hr by fluorescence polarization assay relative to control
cGMP-inhibited 3',5'-cyclic phosphodiesterase 3B (Homo sapiens), sequence (Q13370 whole entry, looked up, the tested form may be a part): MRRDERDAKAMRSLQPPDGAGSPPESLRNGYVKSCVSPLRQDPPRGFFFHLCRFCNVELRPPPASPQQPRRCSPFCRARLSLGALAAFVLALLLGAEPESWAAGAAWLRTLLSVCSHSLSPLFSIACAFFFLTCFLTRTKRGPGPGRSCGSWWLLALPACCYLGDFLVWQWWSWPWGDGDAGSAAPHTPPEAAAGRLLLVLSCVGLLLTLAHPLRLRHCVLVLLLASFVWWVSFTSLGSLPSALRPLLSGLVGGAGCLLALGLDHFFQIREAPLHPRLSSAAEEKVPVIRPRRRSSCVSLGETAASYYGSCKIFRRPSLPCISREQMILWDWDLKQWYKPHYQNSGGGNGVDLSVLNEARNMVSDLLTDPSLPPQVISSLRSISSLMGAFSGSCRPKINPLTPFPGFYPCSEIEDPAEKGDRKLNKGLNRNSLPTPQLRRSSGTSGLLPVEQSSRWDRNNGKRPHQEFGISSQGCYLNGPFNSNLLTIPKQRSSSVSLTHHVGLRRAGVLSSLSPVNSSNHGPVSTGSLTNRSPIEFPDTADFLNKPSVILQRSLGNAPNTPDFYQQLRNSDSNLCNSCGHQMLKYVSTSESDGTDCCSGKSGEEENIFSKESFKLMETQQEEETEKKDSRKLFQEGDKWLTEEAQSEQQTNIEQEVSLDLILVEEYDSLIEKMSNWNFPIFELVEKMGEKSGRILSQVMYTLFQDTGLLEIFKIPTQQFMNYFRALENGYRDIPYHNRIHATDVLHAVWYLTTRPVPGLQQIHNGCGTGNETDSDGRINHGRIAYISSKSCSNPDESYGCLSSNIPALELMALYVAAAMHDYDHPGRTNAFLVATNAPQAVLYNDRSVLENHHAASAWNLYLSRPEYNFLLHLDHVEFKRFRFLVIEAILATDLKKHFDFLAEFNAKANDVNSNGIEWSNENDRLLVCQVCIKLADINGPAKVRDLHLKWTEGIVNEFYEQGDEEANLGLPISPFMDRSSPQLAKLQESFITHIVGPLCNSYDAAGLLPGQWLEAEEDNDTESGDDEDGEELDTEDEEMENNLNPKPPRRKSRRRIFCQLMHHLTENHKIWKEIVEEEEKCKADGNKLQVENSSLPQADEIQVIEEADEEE

[5] = target: cGMP-specific 3',5'-cyclic phosphodiesterase (Homo sapiens) (UniProt O76074); assay: Inhibition of PDE5A (unknown origin) at 20 uM using FAM-cyclic-3',5'-AMP as substrate measured after 1 hr by fluorescence polarization assay relative to control
[6] = target: High affinity cGMP-specific 3',5'-cyclic phosphodiesterase 9A (Homo sapiens) (UniProt O76083); assay: Inhibition of human N-terminal GST-tagged full-length PDE9A2 expressed in baculovirus infected Sf9 insect cells at 20 uM using FAM-cyclic-3',5'-AMP as substrate measured after 1 hr by fluorescence polarization assay relative to control
High affinity cGMP-specific 3',5'-cyclic phosphodiesterase 9A (Homo sapiens), sequence (O76083 whole entry): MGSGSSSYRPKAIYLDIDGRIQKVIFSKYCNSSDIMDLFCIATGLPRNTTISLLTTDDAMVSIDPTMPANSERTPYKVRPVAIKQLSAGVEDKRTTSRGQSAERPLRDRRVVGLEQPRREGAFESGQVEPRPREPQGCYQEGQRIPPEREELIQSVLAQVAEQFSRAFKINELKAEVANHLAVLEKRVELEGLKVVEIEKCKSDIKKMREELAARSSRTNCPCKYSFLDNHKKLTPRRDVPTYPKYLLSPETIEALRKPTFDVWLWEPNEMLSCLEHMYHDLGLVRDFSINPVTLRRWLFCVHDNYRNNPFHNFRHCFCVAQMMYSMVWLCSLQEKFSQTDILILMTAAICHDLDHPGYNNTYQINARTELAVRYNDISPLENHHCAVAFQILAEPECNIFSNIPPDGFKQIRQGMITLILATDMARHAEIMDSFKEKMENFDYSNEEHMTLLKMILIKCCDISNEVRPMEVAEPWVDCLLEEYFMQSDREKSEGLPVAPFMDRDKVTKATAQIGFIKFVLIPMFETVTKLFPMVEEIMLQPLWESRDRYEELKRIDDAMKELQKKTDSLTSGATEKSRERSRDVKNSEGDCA

[7] = MRT(0 to t) in Sprague-Dawley rat at 5 mg/kg, iv by LC-MS/MS analysis; assay type: ADME, organism-based; settings: in vivo
[8] = target: High affinity cAMP-specific 3',5'-cyclic phosphodiesterase 8A (Homo sapiens) (UniProt O60658); assay: Inhibition of human N-terminal GST-tagged full-length PDE8A1 expressed in baculovirus infected Sf9 insect cells at 20 uM using FAM-cyclic-3',5'-AMP as substrate measured after 1 hr by fluorescence polarization assay relative to control
High affinity cAMP-specific 3',5'-cyclic phosphodiesterase 8A (Homo sapiens), sequence (O60658 whole entry, looked up): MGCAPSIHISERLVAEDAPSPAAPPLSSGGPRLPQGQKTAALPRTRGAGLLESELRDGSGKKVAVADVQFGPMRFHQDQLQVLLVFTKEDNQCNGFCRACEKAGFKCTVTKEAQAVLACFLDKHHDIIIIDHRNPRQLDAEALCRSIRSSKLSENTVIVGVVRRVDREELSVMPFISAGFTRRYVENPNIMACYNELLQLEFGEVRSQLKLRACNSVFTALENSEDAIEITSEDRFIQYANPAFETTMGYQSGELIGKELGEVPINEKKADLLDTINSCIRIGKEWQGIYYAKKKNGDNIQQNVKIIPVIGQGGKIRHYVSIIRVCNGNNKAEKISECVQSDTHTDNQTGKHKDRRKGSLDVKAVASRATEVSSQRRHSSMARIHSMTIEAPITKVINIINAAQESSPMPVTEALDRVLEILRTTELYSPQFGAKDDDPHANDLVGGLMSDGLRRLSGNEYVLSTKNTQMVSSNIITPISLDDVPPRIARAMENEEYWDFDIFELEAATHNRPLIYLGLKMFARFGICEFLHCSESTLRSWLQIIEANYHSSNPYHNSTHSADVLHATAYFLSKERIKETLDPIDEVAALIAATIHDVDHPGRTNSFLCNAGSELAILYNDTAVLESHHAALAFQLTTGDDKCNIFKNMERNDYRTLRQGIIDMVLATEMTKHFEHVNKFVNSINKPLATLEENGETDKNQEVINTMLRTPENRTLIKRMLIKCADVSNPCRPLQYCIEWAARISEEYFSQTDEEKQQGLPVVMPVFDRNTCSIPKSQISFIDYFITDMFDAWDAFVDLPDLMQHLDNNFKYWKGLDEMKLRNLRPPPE

[9] = Volume of distribution in Sprague-Dawley rat at 5 mg/kg, iv by LC-MS/MS analysis; assay type: ADME, organism-based; settings: in vivo
[10] = target: High affinity cAMP-specific 3',5'-cyclic phosphodiesterase 8A (Homo sapiens) (UniProt O60658); assay: Inhibition of human N-terminal GST-tagged full-length PDE8A1 expressed in baculovirus infected Sf9 insect cells at 10 uM using FAM-cyclic-3',5'-AMP as substrate measured after 1 hr by fluorescence polarization assay relative to control
[11] = AUC (0 to infinity) in Sprague-Dawley rat at 5 mg/kg, iv by LC-MS/MS analysis; assay type: ADME, organism-based; settings: in vivo
Mus musculus [12] = assay: (§1) Hepatoprotective activity in GalN/LPS-induced C57BL/6J mouse hepatic sepsis model assessed as reduction in ALT level at 1 to 3 mg/kg, IG administered once daily for 3 days followed by GalN/LPS addition 1 hr post-last dose measured after 4 hrs; assay type: functional, organism-based; settings: dose 1-3 mg/kg, time 3.0 day
[13] = Half-life in Sprague-Dawley rat at 5 mg/kg, po by LC-MS/MS analysis; assay type: ADME, organism-based; settings: in vivo
[14] = Half-life in Sprague-Dawley rat at 5 mg/kg, iv by LC-MS/MS analysis; assay type: ADME, organism-based; settings: in vivo
[15] = Clearance in Sprague-Dawley rat at 5 mg/kg, po by LC-MS/MS analysis; assay type: ADME, organism-based; settings: in vivo
[16] = target: High affinity 3',5'-cyclic-AMP phosphodiesterase 7A (Homo sapiens) (UniProt Q13946); assay: Inhibition of PDE7A (unknown origin) at 10 uM using FAM-cyclic-3',5'-AMP as substrate measured after 1 hr by fluorescence polarization assay relative to control
High affinity 3',5'-cyclic-AMP phosphodiesterase 7A (Homo sapiens), sequence (Q13946 whole entry): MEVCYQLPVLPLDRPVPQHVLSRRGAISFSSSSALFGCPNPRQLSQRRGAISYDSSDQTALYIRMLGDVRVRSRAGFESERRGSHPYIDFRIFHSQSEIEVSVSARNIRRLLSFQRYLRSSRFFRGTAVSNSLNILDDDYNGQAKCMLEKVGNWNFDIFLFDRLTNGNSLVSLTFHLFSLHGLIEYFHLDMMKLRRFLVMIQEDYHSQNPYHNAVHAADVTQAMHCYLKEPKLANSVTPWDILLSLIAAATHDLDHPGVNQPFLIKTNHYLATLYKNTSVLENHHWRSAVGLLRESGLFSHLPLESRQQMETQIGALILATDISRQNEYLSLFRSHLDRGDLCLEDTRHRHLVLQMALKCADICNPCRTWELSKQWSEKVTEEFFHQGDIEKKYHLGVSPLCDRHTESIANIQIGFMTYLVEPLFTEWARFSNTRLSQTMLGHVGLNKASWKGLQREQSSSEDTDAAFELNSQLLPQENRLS

[17] = Tmax in Sprague-Dawley rat at 5 mg/kg, po by LC-MS/MS analysis; assay type: ADME, organism-based; settings: in vivo
[18] = AUC(0 to t) in Sprague-Dawley rat at 5 mg/kg, po by LC-MS/MS analysis; assay type: ADME, organism-based; settings: in vivo
[19] = target: High affinity cGMP-specific 3',5'-cyclic phosphodiesterase 9A (Homo sapiens) (UniProt O76083); assay: Inhibition of human N-terminal GST-tagged full-length PDE9A2 expressed in baculovirus infected Sf9 insect cells at 10 uM using FAM-cyclic-3',5'-AMP as substrate measured after 1 hr by fluorescence polarization assay relative to control
[20] = Clearance in Sprague-Dawley rat at 5 mg/kg, iv by LC-MS/MS analysis; assay type: ADME, organism-based; settings: in vivo
[21] = Cmax in Sprague-Dawley rat at 5 mg/kg, po by LC-MS/MS analysis; assay type: ADME, organism-based; settings: in vivo
[22] = AUC (0 to t) in Sprague-Dawley rat at 5 mg/kg, iv by LC-MS/MS analysis; assay type: ADME, organism-based; settings: in vivo
[23] = MRT(0 to t) in Sprague-Dawley rat at 5 mg/kg, po by LC-MS/MS analysis; assay type: ADME, organism-based; settings: in vivo
[24] = target: High affinity 3',5'-cyclic-AMP phosphodiesterase 7A (Homo sapiens) (UniProt Q13946); assay: Inhibition of PDE7A (unknown origin) at 20 uM using FAM-cyclic-3',5'-AMP as substrate measured after 1 hr by fluorescence polarization assay relative to control
Mus musculus [25] = assay: as §1, with “hepatomegaly” for “ALT level”, “hrs by hematoxylin and eosin staining based light microscopy” for “hrs”; assay type: functional, organism-based; settings: dose 1-3 mg/kg, time 3.0 day
Mus musculus [26] = assay: as §1, with “necrotic morphology” for “ALT level”, “hrs by hematoxylin and eosin staining based light microscopy” for “hrs”; assay type: functional, organism-based; settings: dose 1-3 mg/kg, time 3.0 day
Mus musculus [27] = assay: Hepatoprotective activity in GalN/LPS-induced C57BL/6J mouse hepatic sepsis model assessed as reduction in AST level at 1 to 3 mg/kg, IG administered once daily for 3 days followed by GalN/LPS addition 1 hr post-last dose measured after 4 hrs; assay type: functional, organism-based; settings: dose 1-3 mg/kg, time 3.0 day
[28] = Oral bioavailability in Sprague-Dawley rat at 5 mg/kg by LC-MS/MS analysis; assay type: ADME, organism-based; settings: in vivo
[29] = target: cGMP-specific 3',5'-cyclic phosphodiesterase (Homo sapiens) (UniProt O76074); assay: Inhibition of PDE5A (unknown origin) at 10 uM using FAM-cyclic-3',5'-AMP as substrate measured after 1 hr by fluorescence polarization assay relative to control
[30] = AUC(0 to infinity) in Sprague-Dawley rat at 5 mg/kg, po by LC-MS/MS analysis; assay type: ADME, organism-based; settings: in vivo
[31] = target: cGMP-inhibited 3',5'-cyclic phosphodiesterase 3B (Homo sapiens) (UniProt Q13370); assay: Inhibition of recombinant human N-terminal GST-tagged PDE3B (592 to 1112 residues) expressed in Sf9 insect cells at 10 uM using FAM-cyclic-3',5'-AMP as substrate measured after 1 hr by fluorescence polarization assay relative to control
Mus musculus [32] = assay: as §1, with “aggregation of inflammatory cells” for “ALT level”, “hrs by hematoxylin and eosin staining based light microscopy” for “hrs”; assay type: functional, organism-based; settings: dose 1-3 mg/kg, time 3.0 day
[33] = Volume of distribution in Sprague-Dawley rat at 5 mg/kg, po by LC-MS/MS analysis; assay type: ADME, organism-based; settings: in vivo
[34] = Cmax in Sprague-Dawley rat at 5 mg/kg, iv by LC-MS/MS analysis; assay type: ADME, organism-based; settings: in vivo
Mus musculus [35] = assay: Hepatoprotective activity in GalN/LPS-induced C57BL/6J mouse hepatic sepsis model at 3 mg/kg, IG administered once daily for 3 days followed by GalN/LPS addition 1 hr post-last dose measured after 4 hrs by hematoxylin and eosin staining based light microscopy; assay type: functional, organism-based; settings: time 3.0 day
[36] = target: T1, 3',5'-cyclic-AMP phosphodiesterase 4B; assay: Inhibition of PDE4B1 (unknown origin)
[37] = target: T2, 3',5'-cyclic-AMP phosphodiesterase 4D; assay: Inhibition of PDE4D7 (unknown origin)

bioavailability [1]: < 5% | pIC50 [2]: 7.51 | pIC50 [3]: 7.33
Structure (SMILES): CC(C)NC(=O)c1ccc(OC(F)F)c(OCC2CC2)c1

inhibition [4]: 23% | inhibition [5]: 17% | inhibition [6]: 12% | MRT last [7]: 2.31 h | inhibition [8]: 14% | Vd [9]: 1.76 L/kg | inhibition [10]: 6% | AUC [11]: 5299.87 ng·h/mL | t1/2 [13]: 2 h | t1/2 [14]: 1.29 h | CL/F [15]: 22.8 mL/min/kg | inhibition [16]: 8% | pIC50 [2]: 8.00 | Tmax [17]: 0.88 h | AUC(0-t) [18]: 3440 ng·h/mL | inhibition [19]: 5% | clearance [20]: 15.8 mL/min/kg | Cmax [21]: 957 ng/mL | AUC(0-t) [22]: 5170 ng·h/mL | MRT last [23]: 2.74 h | inhibition [24]: 15% | bioavailability [28]: 66% | inhibition [29]: 9% | AUC [30]: 3669.79 ng·h/mL | inhibition [31]: 11% | Vd [33]: 3.91 L/kg | Cmax [34]: 1740 ng/mL
Structure (SMILES): COc1ccc(C(=O)Cn2ccnc2)c2cc(C3CC3)oc12
Activity (Mus musculus [12]): Active | Activity (Mus musculus [25]): Active | Activity (Mus musculus [26]): Active | Activity (Mus musculus [27]): Active | Activity (Mus musculus [32]): Active

Structure (SMILES): COc1ccc(C2CNC(=O)C2)cc1OC1CCCC1 (stereo not drawn)
Activity (Mus musculus [35]): Active

pIC50 [36]: 6.96 | pIC50 [37]: 5.79
Structure (SMILES): CCNc1cc(C(=O)C2CCCC2)ccc1OC
